Source: publication PMC12881674, “Activation of TRPV3 channels in bladder cancer cells stimulates ATP release” (Molecular Pharmacology, 2025)

Target: T1, TRPV3 in KU-19-19 cells (Homo sapiens, UniProt Q8NET8)
T1 construct: host or cells: KU-19-19
T1 sequence (Q8NET8 1-790): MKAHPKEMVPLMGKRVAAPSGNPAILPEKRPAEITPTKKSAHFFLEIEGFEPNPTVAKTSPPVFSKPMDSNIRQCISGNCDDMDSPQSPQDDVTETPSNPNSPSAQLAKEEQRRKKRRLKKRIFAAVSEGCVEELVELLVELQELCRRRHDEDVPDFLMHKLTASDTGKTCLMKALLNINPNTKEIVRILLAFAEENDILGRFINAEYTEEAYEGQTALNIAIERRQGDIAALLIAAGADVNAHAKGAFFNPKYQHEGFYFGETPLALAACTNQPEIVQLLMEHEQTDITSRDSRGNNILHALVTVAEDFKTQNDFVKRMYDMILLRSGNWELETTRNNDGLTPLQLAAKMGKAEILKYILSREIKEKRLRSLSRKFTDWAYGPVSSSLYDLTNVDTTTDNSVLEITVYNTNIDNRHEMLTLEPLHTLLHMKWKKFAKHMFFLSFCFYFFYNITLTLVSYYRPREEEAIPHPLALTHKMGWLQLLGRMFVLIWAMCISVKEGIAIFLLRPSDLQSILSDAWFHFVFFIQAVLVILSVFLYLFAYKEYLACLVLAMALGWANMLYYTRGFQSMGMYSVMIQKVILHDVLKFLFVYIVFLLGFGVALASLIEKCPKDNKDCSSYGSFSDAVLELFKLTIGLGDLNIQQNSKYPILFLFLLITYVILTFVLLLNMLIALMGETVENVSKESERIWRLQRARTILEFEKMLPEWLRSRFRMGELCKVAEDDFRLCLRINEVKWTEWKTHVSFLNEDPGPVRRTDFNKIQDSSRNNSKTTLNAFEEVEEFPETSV
Assay: fura-2 Ca2+ assay in KU-19-19 bladder cancer cells
Type: cell-based
Conditions: 50 μM AV3-1
Procedure: All fluorometric Ca^2+ assays were performed in HBS buffer at room temperature. The compounds of the Enamine Diversity Set were diluted in a buffer composed of 150 mM NaCl and 20 mM HEPES and added to the cells at a final concentration of 25 μM (0.5% DMSO). For the primary compound screening and the generation of concentration-response analyses, a robotic liquid handling station (Freedom Evo 150; Tecan) with a built-in custom-made fluorescence plate imager was used. HEKTRPV3 and bladder cancer cell lines were harvested and loaded with 4 μM fluo-4/AM (Invitrogen; Fisher Scientific) in cell culture medium for 30 minutes at 37 °C. […] Fluorescence was excited using a 470-nm light-emitting diode, and emitted light was imaged through a 515-nm–long pass filter with a cooled Zyla 5.5 camera (Andor). Fluorescence was recorded and processed under the control of the μ-Manager 2.0 gamma software (https://micro-manager.org.[28]). After recording baseline fluorescence, compounds were dispensed into the wells via the liquid handling device. […] For further analysis, fluorescence signals were calculated for each well, corrected for background intensities and normalized to the initial signals. […] Fluorescence signals were excited with a fiber-coupled monochromator device (Polychrome V; Till Photonics) at 340, 358, and 380 nm and calibrated as described before.[29] […]

- [Ca2+]i response in KU-19-19 cells: robust increases in [Ca^2+]i
SMILES: COC(=O)C12CN(Cc3ccccc3)CC1(C(=O)OC)CN(Cc1ccccc1)C2 (stereo not shown) [AV3-1]
